Laboratory results as given in patent US8940719B2, “Lithocholic acid analogues that inhibit sialyltransferase” (Academia Sinica, priority 2006, dated 2015).

What was measured:
[1] = test system: α-2,3-sialylated antigens on CL1-1 cells; assay: Cell surface α-2,3-sialylated antigens by FLOW cytometry (FITC-MAL), CL1-1; type: cell-based; conditions: both 5 μM and 20 μM, five days
Description: (§1) To determine whether α-2,3-ST inhibition alters cell surface glycosylation, lung cancer cells were treated with Lith-o-Asp and cell surface α-2,3-sialylated antigens were detected by FLOW cytometry. Cells were treated with α-2,3-ST inhibitor for five days after which 1×10^6 lung cancer cells were collected and washed twice with Hank's balanced salt solution (HBSS). Collected cells were incubated with FITC-conjugated MAL (1:50) at 37° C. for 15-20 minutes, non-binding MAL was removed by washing with HBSS, and 3×10^4 cells were detected on a FACScalibur instrument (Becton Dickinson). Two different lung cancer cell lines were tested: CL1-1 with low metastatic potential and CL1-5 with high metastatic potential. Since CL1-5 cells were derived from the CL1-1 line by an in vitro matrix gel invasion assay (Chen et al., Cancer Res., 2001, 61:5223), these cell lines share the same genetic background. Treatment of CL1-1 cells with Lith-o-Asp reduced expression of α-2,3-sialylated antigens to around 15% of DMSO treated control cells at both 5 μM and 20 μM (FIG. 4A). In contrast, Lith-o-Asp inhibited the expression of cell surface α-2,3-sialylated antigens in the highly metastatic CL1-5 lung cancer cells in a dose-dependent manner of greater than 15% (FIG. 4B).

CL1-5 lung cancer cells [2] = assay: Wound healing (cell migration) assay; type: cell-based; conditions: 10 μM, 48 hours, vs DMSO control
Description: A section of cells was then scraped from the culture plate to form a gap, and cell migration into the “wound” was observation over 48 hours in the continuous presence of α-2,3-ST inhibitor.

Rat liver α-2,3-ST = Rat liver α-2,3-ST (Rattus norvegicus (Rat), UniProt Q02734); assay: α-2,3-ST inhibition assay (IC50), RP-HPLC of sialylated disaccharide product; type: biochemical; conditions: for IC50: α-2,3-ST, CMP-Neu5Ac substrate, triplicate, read-out: IC50
Description: Compound synthesis was carried out with the following materials according the following general procedures. All chemicals and buffers were purchased from Sigma, Aldrich, or Acros Organics; and all amino acids were purchased from Advanced Chemtech. CMP-Neu5Ac was synthesized starting with sialic acid (Traving & Schauer, Cell. Mol. Life Sci., 1998, 54:1330; Schwarzkopf et al., Proc. Natl. Acad. Sci. USA, 2002, 99:5267). Synthesis of lactose acceptor was achieved as described in Harduin-Lepers et al., Biochimie, 2001, 83:727. Rat liver α-2,3-ST was obtained from CalBiochem at a concentration of 3.7 mU/μL, stored at −80° C., and used within one week. Melting points (m.p.) were recorded with a capillary melting point apparatus (Electrothermal MEL-TEMP); FT-IR spectra were recorded with Perkin Elmer FT-IR Spectrometer (Paragon 1000) in KBr pellets; ^1H and ^13C NMR spectra were recorded with Bruker AMX400 or 500 MHz instruments. Proton chemical shifts (δ) are reported in parts per million (ppm) relative to the methine singlet at 7.24 ppm for the residual CHCl3 in the deuteriochloroform, or the methyl pentet at 3.30 ppm for the residual CHD2OD in the methanol-d4. Carbon chemical shifts are reported in ppm relative to the internal ^13C signals in CDCl3 (77.0 ppm) and CD3OD-d4 (49.0 ppm). Mass spectra were obtained with a FAB JMS-700 double focusing mass spectrometer (JEOL, Tokyo, Japan), MALDI Voyager DE-PRO (Applied Biosystem Houston, USA), and ESI Finnigan LCQ mass spectrometer (Thermo Finnigan, San Jose, Calif., United States) in negative mode. […] The separation procedure was performed using H2O/0.1% trifluoroacetic acid (TFA) (A) and CH3CN/0.05% TFA (B) as eluents.
(§2) Each compound was tested for α-2,3-ST inhibition using CMP-Neu5Ac as a substrate and a modified disaccharide with a 4,5-dimethoxy-2-nitrobenzyl group as a UV-labeled acceptor. Specifically, inhibition assays were performed in triplicate in reaction solution containing 200 mM MES buffer, 100 mM sodium chloride, 0.5 mM disodium-EDTA, 0.01% Triton X-100, 20 μM modified disaccharide, 1.4 mU α-2,3-ST and inhibitor (in dimethyl sulfoxide) in a total volume of 55. Reactions were incubated at 37° C. for 10 minutes at which point 1 mM CMP-Neu5Ac (to a final concentration 3 μM) was added. The solution was then incubated at 37° C. until a detectable amount of product was produced. The reaction was terminated by quenching the solution mixture with heat at 100° C. for 5 minutes. Enzyme activity was determined by monitoring the quantity of sialylated disaccharide product produced over time at 348 nm by RP-HPLC (Supelco Discovery® HS C18, 5 μm, 4.6 mm×25 cm).

CL1-5 lung cancer cells [3] = assay: Cytotoxicity / cell growth, trypan blue exclusion; type: cell-based; conditions: 5 μM or 10 μM, 48 hours, FBS-free media
Description: To determine the effect of the synthesized membrane-permeable α-2,3-ST inhibitors disclosed in Example 1 on cellular processes, in vitro cytotoxicity and adhesion assays were performed on the highly metastatic lung cancer cell line CL1-5. CL1-5 cells were plated at 1×10^6 cells per 60 mm culture dish in DMEM containing 10% fetal bovine serum (FBS) in 5% CO2. The following day the media was replaced with FBS-free media containing inhibitors at 5 μM or 10 μM concentration in DMSO. Controls cells were treated with 0.1% DMSO-containing medium without inhibitor. Cell number and viability were determined 48 hours later by trypan blue exclusion. Treatment with three α-2,3-ST inhibitors, N-Pentyonic (compound 21), Lith-Triethyl-de (compound 20), and Lith-o-Asp (compound 13), inhibited CL1-5 cell growth by between 10-20% compared to control (FIG. 2A).

[4] = test system: α-2,3-sialylated antigens on CL1-5 cells; assay: Cell surface α-2,3-sialylated antigens by FLOW cytometry (FITC-MAL), CL1-5; type: cell-based; conditions: dose-dependent, five days
Description: as §1

α-2,3-ST = conditions: inhibition of α-2,3-ST, Hsu et al. 2005; cited from earlier work
rat α-2,3-ST = rat α-2,3-ST (Rattus norvegicus (Rat), UniProt Q02734); assay: Inhibition constant (Ki) determination, Lineweaver-Burk plot, varying CMP-Neu5Ac; type: biochemical; conditions: toward CMP-Neu5Ac
Description: as §2, with “cm). […]” for “cm).”
Reactions were prepared in inhibition assay reaction solution described above and were incubated for 10 minutes after which 0.3, 0.15, and 0.037 mM CMP-Neu5Ac was added in the presence of inhibitor at 5, 4.5, 3.5, 2.5, and 0 μM. […] The absolute Ki value was determined from the horizontal intercept of a Lineweaver-Burk plot with […] on the vertical axis and inhibitor concentration on the horizontal axis (FIG. 1).

Chain of Rat liver α-2,3-ST (Q02734 whole entry): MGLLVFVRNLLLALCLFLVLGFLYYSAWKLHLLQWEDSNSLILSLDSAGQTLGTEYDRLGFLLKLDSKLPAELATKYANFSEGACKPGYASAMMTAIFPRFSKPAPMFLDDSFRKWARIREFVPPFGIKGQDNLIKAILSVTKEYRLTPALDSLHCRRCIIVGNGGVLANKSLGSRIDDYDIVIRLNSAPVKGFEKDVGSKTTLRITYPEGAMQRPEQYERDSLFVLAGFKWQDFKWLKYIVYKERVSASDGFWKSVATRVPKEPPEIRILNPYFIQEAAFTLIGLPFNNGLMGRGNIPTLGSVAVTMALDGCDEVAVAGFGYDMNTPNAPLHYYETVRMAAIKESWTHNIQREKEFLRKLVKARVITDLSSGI
Chain of rat α-2,3-ST (Q02734 whole entry): as above

Structure (SMILES): C[C@H](CCC(=O)O)C1CC[C@H]2C3CC[C@@H]4C[C@H](OC(=O)[C@@H](N)CC(=O)O)CC[C@]4(C)C3CC[C@]12C (stereo partly drawn) [Compound 13, (R)-4-((3R,5R,10S,13R,14S)-3-((S)-2-amino-3-carboxypropanoyloxy)-10,13-dimethyl-hexadecahydro-1H-cyclopenta[a]phenanthren-17-yl)pentanoic acid]
- expression of α-2,3-sialylated antigens, % of DMSO treated control cells [1]: around 15%
- migration ability of CL1-5 cells (CL1-5 lung cancer cells [2]; listed as Lith-O-Asp): inhibited cell migration
- migration ability of CL1-5 cells (CL1-5 lung cancer cells [2]; listed as Lith-o-Asp): significantly decreased
- fold potency over lithocholic acid (Rat liver α-2,3-ST; vs lithocholic acid): 2 fold
- IC50 (Rat liver α-2,3-ST): 12 µM
- inhibition of CL1-5 cell growth compared to control (CL1-5 lung cancer cells [3]): 10-20%
- inhibition of expression of cell surface α-2,3-sialylated antigens [4]: greater than 15%

Structure (SMILES): C[C@@H]1O[C@@H](O[C@H]2[C@H](O[C@H]3[C@H](O[C@H]4CC[C@@]5(C)[C@@H](CC[C@]6(C)[C@@H]5CC=C5[C@@H]7CC(C)(C)C[C@@H](O)[C@]7(C)CC[C@]56C)[C@@]4(C)CO)O[C@H](C(=O)O)[C@@H](O)[C@@H]3O)O[C@H](CO)[C@H](O)[C@@H]2O)[C@H](O)[C@H](O)[C@H]1O [Soyasaponin I]
- Ki (α-2,3-ST): 2.1 mM

Structure (SMILES): C[C@H](CCCn1cc(CCCC(=O)O)nn1)C1CC[C@H]2C3CC[C@@H]4C[C@H](O)CC[C@]4(C)C3CC[C@]12C (stereo partly drawn) [Compound 22, 4-(1-((R)-4-((3R,5R,10S,13R,14S)-3-hydroxy-10,13-dimethyl-hexadecahydro-1H-cyclopenta[a]phenanthren-17-yl)pentyl)-1H-1,2,3-triazol-4-yl)butanoic acid]
- IC50 (Rat liver α-2,3-ST): 5 µM
- Ki (rat α-2,3-ST): 2200 nM
- type of inhibition (rat α-2,3-ST): noncompetitive inhibition
